Data published in article PMC3497018, “Anti-Human Rhinoviral Activity of Polybromocatechol Compounds Isolated from the Rhodophyta, Neorhodomela aculeata” (Marine Drugs, 2012).
Values after ≈ are worked out from the molar mass of the structure shown. Where two headings read alike, the source gives them in different places.

What was measured:
HRV2 [1] = experiment: Antiviral activity, SRB method using CPE reduction, HRV2-infected HeLa cells; format: cell-based, human rhinovirus; details: for antiviral activity against HRV2 (in words): HeLa cells; for IC50: Human rhinovirus sp., HRV2, HeLa, HRV2 in HeLa cells, mean ± S.D., read-out: IC50, concentration required to inhibit virus-induced cytopathic effect (CPE) by 50%; for TI, therapeutic index = CC50/IC50: HRV2
Method: (§1) HRV 2 and 3 were provided by the ATCC (American Type Culture Collection, Manassas, VA, USA) and were propagated in human epitheloid carcinoma cervix (HeLa) cells at 32 °C. HeLa cells were maintained in minimal essential medium (MEM) supplemented with 10% fetal bovine serum (FBS) and 0.01% antibiotic-antimycotic.
(§2) Assays of antiviral activity and cytotoxicity were evaluated by the SRB method using CPE reduction, recently reported. […] Next day, medium was removed and then washed with 1× phosphate buffered saline (PBS). Infectivity of virus stock was determined by the SRB method using cytopathic effect (CPE) reduction and was determined as infectivity of the virus by SRB ID50 (50% infective dose). […] The antiviral activity of each test material was determined with a 10-fold diluted concentration ranging from 0.1 to 100 μg/mL. Three wells were used as virus controls (virus-infected non-drug-treated cells) while three wells were used as cell controls (non-infected non-drug-treated cells). The culture plates were incubated at 37 °C in 5% CO2 for 2 days. After washing 1 times with 1× PBS, 100 μL of cold (−20 °C) 70% acetone were added to each well and left for 30 min at −20 °C. 70% acetone was removed and 96-well plates were left at dry oven for 30 min. 100 μL of 0.4% (w/v) SRB in 1% acetic acid solution were added to each well and left at room temperature for 30 min. Unbound SRB was removed and the plates were washed 5 times with 1% acetic acid before oven drying and were then left in a dry oven for 1 day. Bound SRB was solubilized with 100 μL of 10 mM unbuffered tris-base solution and plates were left on a table for 30 min. The absorbance was read at 540 nm by using a VERSAmax microplate reader (Molecular Devices, Palo Alto, CA, USA) with a reference absorbance at 620 nm. To calculate the IC50 values, the results were transformed to percentage of controls and the IC50 values were graphically obtained from the dose-response curves. The percent protection achieved by the test compound in HRV2 or HRV3-infected cells was calculated by the following formula: […]
(§3) where (ODt)virus is the optical density measured with a given concentration of the test compound in virus-infected cells; (ODc)virus is the optical density measured for the control untreated virus-infected cells; and (ODc)mock is the optical density measured for control untreated mock-infected cells. The concentration achieving 50% protection according to the formula above was defined as the 50% inhibitory concentration (IC50). The therapeutic index was defined as CC50/IC50. […] Next day, medium was removed and the 96-well plates were replaced with media containing the serially diluted compounds and the cells were further incubated for 48 h. The culture medium was removed and washed with 1× PBS. The next step was conducted by antiviral activity assay above described. To calculate the CC50 values, the results were transformed to percentage of controls and the CC50 values were graphically obtained from the dose-response curves. Ribavirin was used as positive, and dimethyl sulfoxide (DMSO) was used as negative control.

HRV3 [2] = experiment: Antiviral activity, SRB method using CPE reduction, HRV3-infected HeLa cells; format: cell-based, human rhinovirus; details: for antiviral activity against HRV3 (in words): HeLa cells; for IC50: Human rhinovirus sp., HRV3, HeLa, HRV3 in HeLa cells, mean ± S.D., ND = maximum inhibition rate under 50%, read-out: IC50, concentration required to inhibit virus-induced cytopathic effect (CPE) by 50%
Method: as §1, §2, §3

HRV3 [3] = experiment: Microscopic observation of HRV3-induced CPE in HeLa cells; format: cell-based, human rhinovirus; details: HRV3-infected HeLa cells, 20 μg/mL, 32 °C, 2 days
Method: (§4) After a 2-day infection of HeLa cells with HRV2 and HRV3, the effect of compound 1 and compound 3 on HRV-induced cytopathic effect (CPE) investigated.
(§5) Figure 3 The effect of compound 1 or compound 3 on HRV2 (left group; I) and HRV 3 (right group; II)-induced CPE. The virus-infected cells were treated with compound 1 or compound 3 of 20 μg/mL. After incubation at 32 °C in 5% of CO2 for 2 days, the cell morphology was photographed under a microscope.
(§6) Briefly, HeLa cells were seeded onto a 96-well culture plate at a concentration of 2 × 10^4 cells per well. The next day, the medium was removed and washed with PBS. Then, 0.09 mL of diluted virus suspension and 0.01 mL of medium supplemented with 20 mM MgCl2 containing compound 1 or compound 3 of 20 μg/mL were added. After incubation at 32 °C in 5% CO2 for 2 days, the morphology of cells was observed under microscope of 32 × 10 magnifications (St Ernst-Leitz, Wetzlar, Germany), and images were recorded.

HRV2 [4] = experiment: Microscopic observation of HRV2-induced CPE in HeLa cells; format: cell-based, human rhinovirus; details: HRV2-infected HeLa cells, 20 μg/mL, 32 °C, 2 days
Method: as §4, §5, §6

HeLa cells = experiment: Cytotoxicity, SRB method, non-infected HeLa cells, 48 h; format: cell-based, human; details: Table 2, column under HRV3
Method: as §2, §3

[5] = as above; format: cell-based, human; details: human, non-infected HeLa cells, Table 4, read-out: CC50, concentration required to reduce cell growth by 50%
Method: as §2, §3

Structure (SMILES) | antiviral activity against HRV2 (in words) (HRV2 [1]) | antiviral activity against HRV3 (in words) (HRV3 [2]) | effect on HRV2-induced visible CPE (HRV2 [4]) | IC50 (HRV2 [1]; Table 4) | CC50 at 48 h [5] | further results
COCc1cc(Br)c(O)c(O)c1Br [Compound 5, 2,5-Dibromo-3,4-dihydroxy-benzyl methyl ether] | no antiviral effect | no antiviral effect | – | – | – | –
NC(=O)c1ncn([C@@H]2O[C@H](CO)[C@@H](O)[C@H]2O)n1 [Ribavirin, reference compound] | – | – | prevented a CPE | 2.15 ± 0.51 µg/mL (≈ 8.8 µM) | > 20 µg/mL | effect on HRV3-induced visible CPE (HRV3 [3]): prevented a CPE; IC50 (HRV2 [1]; Table 2, ND = maximum inhibition rate under 50%): 17.1 ± 1.48 µg/mL (≈ 70.2 µM); CC50, concentration required to reduce cell growth by 50% (HeLa cells): >20 µg/mL; IC50 (HRV3 [2]; Table 2): 14.2 ± 2.2 µg/mL (≈ 58.4 µM); IC50 (HRV3 [2]; Table 4): 5.09 ± 0.6 µg/mL (≈ 20.8 µM)
COCc1cc(O)c(O)c(Br)c1Br [Compound 4, 2,3-Dibromo-4,5-dihydroxybenzyl methyl ether] | no antiviral effect | no antiviral effect | – | – | – | –
COCc1cc(O)c(O)c(Br)c1Cc1cc(O)c(O)c(Br)c1Br [Compound 3, 2,2′,3-Tribromo-3′,4,4′,5-tetrahydroxy-6′-methoxymethyldiphenylmethane] | – | – | inhibited the formation of a visible CPE | 7.11 ± 0.64 µg/mL (≈ 13.9 µM) | > 20 µg/mL | effect on HRV3-induced visible CPE (HRV3 [3]): inhibited the formation of a visible CPE; TI, therapeutic index = CC50/IC50 (HRV2 [1]; Table 4): 2.81; IC50 (HRV3 [2]; Table 4): 4.69 ± 0.44 µg/mL (≈ 9.14 µM); TI, therapeutic index = CC50/IC50 (HRV3 [2]; Table 4, HRV3): 4.26
Oc1cc(Cc2cc(O)c(O)c(Br)c2Br)c(Br)c(Br)c1O [Compound 6, 2,2′,3,3′-Tetrabromo-4,4′,5,5′-tetrahydroxydiphenylmethane] | no antiviral effect | no antiviral effect | – | – | – | –
OCc1cc(O)c(O)c(Br)c1Br [Compound 1, 2,3-Dibromo-4,5-dihydroxybenzyl alcohol] | – | did not show anti-HRV3 activity | inhibited the formation of a visible CPE | 2.5 ± 0.66 µg/mL (≈ 8.39 µM) | > 20 µg/mL | TI, therapeutic index = CC50/IC50 (HRV2 [1]; Table 4): 8.00
O=Cc1cc(O)c(O)c(Br)c1Br [Compound 2, 2,3-Dibromo-4,5-dihydroxybenzaldehyde] | no antiviral effect | no antiviral effect | – | – | – | –
